# From US20260108546A1 (ELI LILLY AND COMPANY, priority 2024, published 2026)
# Biological target: T1, hGIP-R (Homo sapiens, UniProt P48546)
# T1 construct: expressed in transfected cells; host or cells: HEK-293 clonal cell lines
# T1 sequence (P48546 22-466): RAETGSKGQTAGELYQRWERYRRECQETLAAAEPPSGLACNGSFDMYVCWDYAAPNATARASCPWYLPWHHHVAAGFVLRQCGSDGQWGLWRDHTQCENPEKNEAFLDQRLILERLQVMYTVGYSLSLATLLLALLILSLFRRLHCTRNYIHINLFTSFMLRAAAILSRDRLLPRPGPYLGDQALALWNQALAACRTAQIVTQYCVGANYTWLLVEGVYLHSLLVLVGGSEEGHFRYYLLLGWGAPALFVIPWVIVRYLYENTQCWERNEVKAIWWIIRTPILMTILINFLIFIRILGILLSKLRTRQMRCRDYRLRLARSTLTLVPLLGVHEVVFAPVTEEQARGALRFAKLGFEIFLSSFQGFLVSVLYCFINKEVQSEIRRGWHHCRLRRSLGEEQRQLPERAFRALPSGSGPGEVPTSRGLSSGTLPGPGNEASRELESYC
# Assay: Functional hGIP-R Assay (cAMP formation, HTRF)
# Assay type: cell-based
# Settings: for Emax: cAMP efficacy, percent of maximal response to GIP(1-42)OH, 37° C., 0.1% bovine casein, arithmetic mean ± SEM; for EC50: cAMP potency, HEK-293 cells expressing hGIP-R, incubated at 37° C. in the presence of 0.1% bovine casein, geometric mean, read-out: Human GIP-R EC50, nM (SEM, n)
# Procedure, shortened: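 Relative EC50 and Emax came from four-parameter logistic fits of cAMP as a percent of the human GIP (1-42) OH maximal response. The cAMP was measured by competitive HTRF after 30 min, 37 °C compound exposure of hGIP-R HEK-293 clones in IBMX (250 μM)-containing medium.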
SMILES,Emax [%],EC50 [nM]
"Cn1cc2cc(-c3ccc([C@H]4C[C@@H]4C(=O)N[C@H](Cc4cnc5ncccn45)C(=O)NC(C)(C)Cn4nc(C(F)(F)F)cc4C4CC4)cc3)cnc2n1 [Example 37, (1S,2S)-N-((R)-1-((1-(5-Cyclopropyl-3-(trifluoromethyl)-1H-pyrazol-1-yl)-2-methylpropan-2-yl)amino)-3-(imidazo[1,2-a]pyrimidin-3-yl)-1-oxopropan-2-yl)-2-(4-(2-methyl-2H-pyrazolo[3,4-b]pyridin-5-yl)phenyl) cyclopropane-1-carboxamide]",77.4 ± 5.92,10.8
Cn1cc(-c2cc(C(F)(F)F)nn2CC(C)(C)NC(=O)[C@@H](Cc2cnc3ncccn23)NC(=O)[C@H]2C[C@@H]2c2ccc(-c3cnc4nccn4c3)cc2)cn1 [Example 38],92.1,7.93
"CC(C)(Cn1ccc(C(F)(F)F)n1)NC(=O)[C@@H](Cc1cnc2ncccn12)NC(=O)[C@H]1C[C@@H]1c1ccc(-c2cnc3nccn3c2)cc1 [Example 39, (1S,2S)-N-((R)-3-(Imidazo[1,2-a]pyrimidin-3-yl)-1-((2-methyl-1-(3-(trifluoromethyl)-1H-pyrazol-1-yl)propan-2-yl)amino)-1-oxopropan-2-yl)-2-(4-(imidazo[1,2-a]pyrimidin-6-yl)phenyl) cyclopropane-1-carboxamide]",77.8 ± 2.57,63.1
"CC(C)(Cn1nc(C(F)(F)F)cc1C1CC1)NC(=O)[C@@H](Cc1cnc2ncccn12)NC(=O)[C@H]1C[C@@H]1c1ccc(NC(=O)C2CC(F)(F)C2)cc1 [Example 40, N-(4-((1S,2S)-2-(((R)-1-((1-(5-cyclopropyl-3-(trifluoromethyl)-1H-pyrazol-1-yl)-2-methylpropan-2-yl)amino)-3-(imidazo[1,2-a]pyrimidin-3-yl)-1-oxopropan-2-yl)carbamoyl)cyclopropyl)phenyl)-3,3-difluorocyclobutane-1-carboxamide]",60.7 ± 0.306,3.55
"Cn1cc2cc(-c3ccc([C@H]4C[C@@H]4C(=O)N[C@H](Cc4cnn(C(F)F)c4)C(=O)NC(C)(C)Cn4nc(C(F)(F)F)cc4-c4cn[nH]n4)cc3)cnc2n1 [Example 43, (1S,2S)-N-((R)-1-((1-(5-(2H-1,2,3-Triazol-4-yl)-3-(trifluoromethyl)-1H-pyrazol-1-yl)-2-methylpropan-2-yl)amino)-3-(1-(difluoromethyl)-1H-pyrazol-4-yl)-1-oxopropan-2-yl)-2-(4-(2-methyl-2H-pyrazolo[3,4-b]pyridin-5-yl)phenyl)cyclopropane-1-carboxamide]",116 ± 4.26,61.1
"CC(C)(Cn1cc(C(F)(F)F)cn1)NC(=O)[C@@H](Cc1cnc2ncccn12)NC(=O)[C@H]1C[C@@H]1c1ccc(NC(=O)C2CCC(F)(F)CC2)cc1 [Example 45, 4,4-Difluoro-N-(4-((1S,2S)-2-(((R)-3-(imidazo[1,2-a]pyrimidin-3-yl)-1-((2-methyl-1-(4-(trifluoromethyl)-1H-pyrazol-1-yl)propan-2-yl)amino)-1-oxopropan-2-yl)carbamoyl)cyclopropyl)phenyl)cyclohexane-1-carboxamide]",79.8 ± 9.84,10.7
"CC(C)(Cn1cc(C(F)(F)F)cn1)NC(=O)[C@@H](Cc1cnc2ncccn12)NC(=O)[C@H]1C[C@@H]1c1ccc(NC(=O)C2CC(F)(F)C2)cc1 [Example 46, 3,3-Difluoro-N-(4-((1S,2S)-2-(((R)-3-(imidazo[1,2-a]pyrimidin-3-yl)-1-((2-methyl-1-(4-(trifluoromethyl)-1H-pyrazol-1-yl)propan-2-yl)amino)-1-oxopropan-2-yl)carbamoyl)cyclopropyl)phenyl) cyclobutane-1-carboxamide]",66.4 ± 2.06,77.9
"CC(C)(Cn1cc(C(F)(F)F)cn1)NC(=O)[C@@H](Cc1cnc2ncccn12)NC(=O)[C@H]1C[C@@H]1c1ccc(-c2cnc3nccn3c2)cc1 [Example 47, (1S,2S)-N-((R)-3-(Imidazo[1,2-a]pyrimidin-3-yl)-1-((2-methyl-1-(4-(trifluoromethyl)-1H-pyrazol-1-yl)propan-2-yl)amino)-1-oxopropan-2-yl)-2-(4-(imidazo[1,2-a]pyrimidin-6-yl)phenyl) cyclopropane-1-carboxamide]",84.6 ± 1.49,41.5

# Now from value to molecule:
Emax [%],EC50 [nM],SMILES
113 ± 12.3,183,"CN(C(=O)[C@H]1C[C@@H]1c1ccc(-c2cnc3nccn3c2)cc1)[C@H](Cc1cnn(C)c1)C(=O)NC(C)(C)Cn1nc(C(F)(F)F)cc1-c1ccc(=O)n(C)c1 [Example 34, (1S,2S)-2-(4-(imidazo[1,2-a]pyrimidin-6-yl)phenyl)-N-methyl-N-((R)-1-((2-methyl-1-(5-(1-methyl-6-oxo-1,6-dihydropyridin-3-yl)-3-(trifluoromethyl)-1H-pyrazol-1-yl)propan-2-yl)amino)-3-(1-methyl-1H-pyrazol-4-yl)-1-oxopropan-2-yl)cyclopropane-1-carboxamide]"
75 ± 4.1,135,"CN(C(=O)[C@H]1C[C@@H]1c1ccc(NC(=O)C2CCC(F)(F)CC2)cc1)[C@H](Cc1cnn(C)c1)C(=O)NC(C)(C)Cn1nc(C(F)(F)F)cc1-c1ccc(=O)n(C)c1 [Example 35, 4,4-Difluoro-N-(4-((1S,2S)-2-(methyl((R)-1-((2-methyl-1-(5-(1-methyl-6-oxo-1,6-dihydropyridin-3-yl)-3-(trifluoromethyl)-1H-pyrazol-1-yl)propan-2-yl)amino)-3-(1-methyl-1H-pyrazol-4-yl)-1-oxopropan-2-yl)carbamoyl)cyclopropyl)phenyl)cyclohexane-1-carboxamide]"
94 ± 11.1,104,"CN(C(=O)[C@H]1C[C@@H]1c1ccc(NC(=O)Nc2ccc(F)cc2)cc1)[C@H](Cc1cnn(C)c1)C(=O)NC(C)(C)Cc1ccc(F)cc1 [Example 36, (1S,2S)-N-((R)-1-((1-(4-Fluorophenyl)-2-methylpropan-2-yl)amino)-3-(1-methyl-1H-pyrazol-4-yl)-1-oxopropan-2-yl)-2-(4-(3-(4-fluorophenyl)ureido)phenyl)-N-methylcyclopropane-1-carboxamide]"
111 ± 4.76,20.2,"Cn1cc(C[C@@H](NC(=O)[C@H]2C[C@@H]2c2ccc(-c3cnc4nn(C)cc4c3)cc2)C(=O)NC(C)(C)Cn2nc(C(F)(F)F)cc2-c2cn[nH]c2)cn1 [Example 41, (1S,2S)-N—((R)-1-((2-Methyl-1-(5-(trifluoromethyl)-1′H,2H-[3,4′-bipyrazol]-2-yl)propan-2-yl)amino)-3-(1-methyl-1H-pyrazol-4-yl)-1-oxopropan-2-yl)-2-(4-(2-methyl-2H-pyrazolo[3,4-b]pyridin-5-yl)phenyl)cyclopropane-1-carboxamide]"
114 ± 10.2,52.7,Cn1cc(C[C@@H](NC(=O)[C@H]2C[C@@H]2c2ccc(-c3cnc4nn(C)cc4c3)cc2)C(=O)NC(C)(C)Cn2nc(C(F)(F)F)cc2-c2cc[nH]n2)cn1 [Example 42]
111 ± 17.5,122,"Cn1cc(C[C@@H](NC(=O)[C@H]2C[C@@H]2c2ccc(-c3cnc4nn(C)cc4c3)cc2)C(=O)NC(C)(C)Cn2nc(C(F)F)cc2-c2cn[nH]n2)cn1 [Example 44, (1S,2S)-N-((R)-1-((1-(3-(Difluoromethyl)-5-(2H-1,2,3-triazol-4-yl)-1H-pyrazol-1-yl)-2-methylpropan-2-yl)amino)-3-(1-methyl-1H-pyrazol-4-yl)-1-oxopropan-2-yl)-2-(4-(2-methyl-2H-pyrazolo[3,4-b]pyridin-5-yl)phenyl)cyclopropane-1-carboxamide]"
56.5 ± 4.38,76.9,"CC(C)(Cc1ccc(F)cc1)NC(=O)[C@@H](Cc1cnc2ncccn12)NC(=O)[C@H]1C[C@@H]1c1ccc(NC(=O)C2CC(F)(F)C2)cc1 [Example 48, 3,3-Difluoro-N-(4-((1S,2S)-2-(((R)-1-((1-(4-fluorophenyl)-2-methylpropan-2-yl)amino)-3-(imidazo[1,2-a]pyrimidin-3-yl)-1-oxopropan-2-yl)carbamoyl)cyclopropyl)phenyl)cyclobutane-1-carboxamide]"
72.6 ± 3.47,12.6,"CC(C)(Cc1ccc(F)cc1)NC(=O)[C@@H](Cc1cnc2ncccn12)NC(=O)[C@H]1C[C@@H]1c1ccc(NC(=O)C2CCC(F)(F)CC2)cc1 [Example 49, 4,4-Difluoro-N-(4-((1S,2S)-2-(((R)-1-((1-(4-fluorophenyl)-2-methylpropan-2-yl)amino)-3-(imidazo[1,2-a]pyrimidin-3-yl)-1-oxopropan-2-yl)carbamoyl)cyclopropyl)phenyl)cyclohexane-1-carboxamide]"
120 ± 6.49,62.7,"Cn1cc(C[C@@H](NC(=O)[C@H]2C[C@@H]2c2ccc(-c3cnc4nn(C)cc4c3)cc2)C(=O)NC(C)(C)Cn2nc(C(F)(F)F)cc2C2CCC2)cn1 [Example 51, (1S,2S)-N—((R)-1-((1-(5-Cyclobutyl-3-(trifluoromethyl)-1H-pyrazol-1-yl)-2-methylpropan-2-yl)amino)-3-(1-methyl-1H-pyrazol-4-yl)-1-oxopropan-2-yl)-2-(4-(2-methyl-2H-pyrazolo[3,4-b]pyridin-5-yl)phenyl)cyclopropane-1-carboxamide]"
